Laboratory results reported in US20250064707A1, “PEPTIDE HAVING ANTI-AGING ACTIVITY, AND USE THEREOF” (CAREGEN CO., LTD., priority 2021, published 2025).

Legend:
[1] = tested on: NIH3T3 cells (mouse fibroblast cell line); experiment: RT-PCR expression of ECM component genes (Col1a1, fibronectin, elastin) in fibroblasts; format: cell-based; settings: peptide 10, 50, 100 μM, 24 hours, RT-PCR vs GAPDH
Protocol: First, NIH3T3 cells (mouse fibroblast cell line) were seeded in a 6-well plate at a cell density of 5×10^5 cell/well, and then the cells were cultured in DMEM medium containing 10% fetal bovine serum (FBS) for 24 hours. The cultured cells were washed once with serum free DMEM medium, and the peptide of the present invention was mixed in 1 mL of the serum free DMEM medium at each of concentrations of 10, 50, and 100 μM, and dispensed into the cells. A positive control (PC) was treated with 100 nM of bFGF instead of the above peptide. The cells were cultured in a CO2 incubator at 37° C. for 24 hours.
The cultured cells were washed twice with PBS, and RNA was extracted from the cells using easy blue (iNtRON, Cat. No.: 17061, Korea). The extracted RNA was subjected to RT-PCR using an RNA kit (enzynomics, Cat. No.: P581T, Korea). The sequences of the primers of collagen (Col1a1), fibronectin, and elastin used in RT-PCR and the sequence of the primer of GAPDH used to compare the total RNA amount of each treatment group are shown in [Table 2].

NIH3T3 cells = experiment: Collagen ELISA and hyaluronic acid ELISA of culture medium, fibroblasts; format: cell-based, mouse; settings: peptide 50 μM, 100 μM, 72 hours
Protocol: (§1) First, NIH3T3 cells and HaCaT cells (human keratinocyte cell line) were seeded in a 24-well plate at a cell density of 1×10^4 cell/well, and then the cells were cultured in DMEM medium containing 10% fetal bovine serum (FBS) for 24 hours. The cultured cells were washed once with serum free DMEM medium, and the peptide of the present invention was mixed in 2 mL of the serum free DMEM medium at each of concentrations of 50 μM, 100 μM, and 5 ng/ml, and dispensed into three wells by 500 μL per condition. The NIH3T3 cells were treated with 5 ng/ml of TGF-β1 instead of the above peptide as a positive control (PC). The HaCaT cells were treated with 100 nM of IGF-1 instead of the above peptide as a PC. The cells were cultured in a CO2 incubator at 37° C. for 72 hours.
(§2) The medium of the cultured NIH3T3 and HaCaT cells was centrifuged to settle a suspended matter, a supernatant was transferred to an e-tube, and then each of ELISA (abcam, Cat No.: ab210579, UK) and hyaluronic acid (HA) ELISA (ECHELON biosciences, Cat No.: K-1200, USA) was performed using the same.

[2] = tested on: HaCaT cells (human keratinocyte cell line); experiment: Collagen ELISA and hyaluronic acid ELISA of culture medium, keratinocytes; format: cell-based; settings: peptide 50 μM, 100 μM, 72 hours
Protocol: as §1, §2

HaCaT cells [3] = experiment: RT-PCR expression of skin barrier genes (SIRT1, AQP3) in keratinocytes; format: cell-based, human; settings: peptide 10, 50, 100 μM, 24 hours
Protocol: (§3) First, HaCaT cells were seeded in a 6-well plate at a cell density of 3×10^5 cell/well, and then the cells were cultured in DMEM medium containing 10% fetal bovine serum (FBS) for 24 hours. The cultured cells were washed once with serum free DMEM medium, and then the peptide of the present invention was mixed in 1 mL of the serum free DMEM medium at each of concentrations of 10, 50, and 100 μM, and dispensed into the cells. A positive control (PC) was treated with 100 nM of EGF instead of the above peptide. The cells were cultured in a CO2 incubator at 37° C. for 24 hours.
The cultured cells were washed twice with PBS, and then RNA was extracted from the cells using easy blue (iNtRON, Cat. No.: 17061, Korea). The extracted RNA was subjected to RT reaction using a kit (enzynomics, Cat. No.: RT200, Korea). Thereafter, RT-PCR was performed using a PCR kit (enzynomics, Cat. No.: R581T, Korea). The sequences of the primers of SIRT1 and AQP3 used in RT-PCR are shown in [Table 3]. The sequence of the primer of GAPDH used to compare the total RNA amount of each treatment group is shown in [Table 2].

HaCaT cells [4] = experiment: Intracellular reactive oxygen species after UVB irradiation (DCFH-DA, FACS); format: cell-based, human; settings: peptide 10, 50, 100 μM, 1 hour before 15 J/cm^2 UVB, 24 hours after
Protocol: The reactive oxygen species level increases when UV is irradiated. Therefore, it was confirmed whether the reactive oxygen species level decreased again and the aging phenomenon caused by oxidative stress in cells was inhibited when treated with the peptide of the present invention.
as §3, with “5×10^5” for “3×10^5”, “25 μM” for “100 nM”, “Trolox” for “EGF”, “peptide.” for “peptide. The cells were cultured in a CO2 incubator at 37° C. for 24 hours.”
The cells were cultured in a CO2 incubator at 37° C. for 1 hour. The medium of the cultured cells was transferred to a tube, 1 ml of PBS was added, and irradiation was performed with 15 J/cm^2 of UVB using a UV irradiator (VILBER LOURMAT, Cat No.: 3102-BSU, France). After removing PBS, 900 μL of the medium transferred to the tube was dispensed, and culture was performed in a CO2 incubator at 37° C. for 24 hours. […] After centrifugation, the cells were washed with PBS, and a fluorescence value was measured through FACS.

HaCaT cells [5] = experiment: RT-PCR expression of SIRT1 and AQP3 decreased by UVB irradiation; format: cell-based, human; settings: peptide 10, 50, 100 μM, 15 J/cm^2 UVB, 24 hours
Protocol: The expression of genes related to the skin barrier strengthening function is inhibited when irradiated with UV.
(§4) First, HaCaT cells were seeded in a 6-well plate at a cell density of 3×10^5 cell/well, and then the cells were cultured in DMEM medium containing 10% fetal bovine serum (FBS) for 24 hours. The cultured cells were washed once with serum free DMEM medium, and then the peptide of the present invention was mixed in 1 mL of the serum free DMEM medium at each of concentrations of 10, 50, and 100 μM, and dispensed into the cells. A positive control (PC) was treated with 2.5 mM of N-acetylcysteine (NaC) instead of the above peptide. The cells were cultured in a CO2 incubator at 37° C. for 1 hour.
The cultured cells were washed twice with PBS, 1 ml of PBS was added, and irradiation was performed with 15 J/cm^2 of UVB using a UV irradiator (VILBER LOURMAT, Cat No.: 3102-BSU, France). After removing PBS, 900 μL of the medium transferred to the tube was dispensed, and culture was performed in a CO2 incubator at 37° C. for 24 hours. The cultured cells were washed twice with PBS, and then RNA was extracted from the cells using easy blue (iNtRON, Cat. No.: 17061, Korea). The extracted RNA was subjected to an RT reaction using an RNA kit (enzynomics, Cat. No.: P581T, Korea). Thereafter, RT-PCR was performed using a PCR kit (enzynomics, Cat. No.: R581T, Korea). […]

HaCaT cells [6] = experiment: Western blot of apoptotic-inducing factors (cleaved PARP-1, cleaved Caspase-3) increased by UVB irradiation; format: cell-based, human; settings: peptide 10, 50, 100 μM, 15 J/cm^2 UVB, 24 hours
Protocol: Expression of the apoptotic-inducing factors increases when irradiated with UV. Therefore, it was confirmed whether the photoaging phenomenon of the cells was inhibited and the damaged cells were regenerated by confirming whether the increased expression levels of the apoptotic-inducing factors such as cleaved PARP-1 and cleaved Caspase-3 decreased again when treated with the peptide of the present invention.
as §4, with “5×10^5” for “3×10^5”, “peptide.” for “peptide. The cells were cultured in a CO2 incubator at 37° C. for 1 hour.”
The cells were cultured in a CO2 incubator at 37° C. for 1 hour, the medium of the cultured cells was transferred to a tube, 1 mL of PBS was added, and then irradiation was performed with 15 J/cm^2 of UVB using a UV irradiator (VILBER LOURMAT, Cat No.: 3102-BSU, France). After removing PBS, 900 μL of the medium transferred to the tube was added again, and culture was performed in a CO2 incubator at 37° C. for 24 hours. […]

For EYIPNRVCRR [SEQ ID NO: 1], the “expression of the Col1a1 gene” value [1] was “gradually increased as a concentration of the peptide increased”, the “expression of the elastin gene” value [1] was “gradually increased as a concentration of the peptide increased” and the “expression of the fibronectin gene” value [1] was “gradually increased as a concentration of the peptide increased”. The “amount of collagen protein” value (NIH3T3 cells; ELISA of medium (FIG. 2A)) was “gradually increased as a concentration of the peptide increased”, the “amount of hyaluronic acid” value (NIH3T3 cells; HA ELISA of medium (FIG. 2A)) was “gradually increased as a concentration of the peptide increased” and the “amount of collagen protein” value ([2]; ELISA of medium (FIG. 2B)) was “gradually increased as a concentration of the peptide increased”. The “amount of hyaluronic acid” value ([2]; HA ELISA of medium (FIG. 2B)) was “gradually increased as a concentration of the peptide increased”, the “mRNA level of AQP3” value (HaCaT cells [3]) was “increased” and the “mRNA level of SIRT1” value (HaCaT cells [3]) was “increased”. The “intracellular reactive oxygen species level increased by UV irradiation” value (HaCaT cells [4]) was “decreased”, the “mRNA level of AQP3 decreased by UV irradiation” value (HaCaT cells [5]) was “increased again” and the “mRNA level of SIRT1 decreased by UV irradiation” value (HaCaT cells [5]) was “increased again”. The “expression of Cleaved Caspase-3 increased by UV irradiation” value (HaCaT cells [6]) was “inhibited the expression” and the “expression of Cleaved PARP-1 increased by UV irradiation” value (HaCaT cells [6]) was “inhibited the expression”.
